Data taken from PubChem BioAssay (NCI).
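Five concentrations, 48 hours, 96-well plates. GI50 marks 50% less growth. TGI marks complete inhibition of growth.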

How the values were obtained:
Assay in all cases: growth of human tumour cells (NCI), 48 h
[1] = tested on: RXF 393 renal
[2] = tested on: SK-OV-3 ovarian
[3] = tested on: EKVX NSCLC
[4] = tested on: M14 melanoma
[5] = tested on: CCRF-CEM leukemia
[6] = tested on: SF-539 CNS
[7] = tested on: SNB-75 CNS
[8] = tested on: NCI-H460 lung
[9] = tested on: HCC-2998 colon
[10] = tested on: NCI-H226 lung

| SMILES | TGI [1] [µM] | TGI [2] [µM] | TGI [3] [µM] | TGI [4] [µM] | TGI [5] [µM] | TGI [6] [µM] | TGI [7] [µM] | TGI [8] [µM] | TGI [9] [µM] | TGI [10] [µM] | GI50 [1] [µM] | GI50 [2] [µM] | GI50 [10] [µM] | GI50 [3] [µM] | GI50 [5] [µM] | GI50 [6] [µM] | GI50 [7] [µM] | GI50 [8] [µM] | GI50 [9] [µM] | GI50 [4] [µM] |
| --- | --- | --- | --- | --- | --- | --- | --- | --- | --- | --- | --- | --- | --- | --- | --- | --- | --- | --- | --- | --- |
| CC(C)(C)CI | 33.7 | > 100 | > 100 | 71.3 | 50.8 | > 100 | 67.6 | 81.2 | 37.2 |  |  |  |  |  |  |  |  |  |  |  |
| COc1nc(NC2OC(CO)C(O)C(O)C2O)c(N)c(=O)[nH]1 (stereo not given) | > 100 | > 100 | > 100 |  | > 100 | > 100 | > 100 | > 100 | > 100 | > 31.6 |  |  |  |  |  |  |  |  |  |  |
| CC1OC(CO)(n2cnc3c(N)ncnc32)C(O)C1O (stereo not given) | > 100 | > 100 | > 100 |  | > 100 | > 100 | > 100 | > 100 | > 100 | > 100 |  |  |  |  |  |  |  |  |  |  |
| COC(=O)Cc1c(C2C(CC(=O)OC)c3ccccc3N2C2OC(CO)C(O)C(O)C2O)[nH]c2ccccc12 (stereo not given) |  | > 100 | > 100 | > 100 | > 100 |  | > 100 | > 100 | > 100 |  |  |  |  |  |  |  |  |  |  |  |
| CON[N+]([O-])=NC(C)C | > 100 | > 100 | > 100 | > 100 | > 100 | > 100 | > 100 | > 100 | > 100 | > 100 |  |  |  |  |  |  |  |  |  |  |
| CCCCCCCCCCCCCCCCCCOc1ccccc1COP(=O)(O)OOCC[N+](C)(C)C | 1.96 | 10.6 | 10.3 |  | 2.02 | 3.02 | 3.51 | 12.5 | 1.6 | 5.54 | 0.911 | 2.38 | 1.16 | 1.77 | 0.751 | 1.19 | 0.96 | 2.81 | 0.787 |  |
| O=c1oc2ccccc2n1P(=O)(Oc1ccc(Cl)cc1)n1c(=O)oc2ccccc21 | > 100 | > 100 | > 100 |  | > 100 | > 100 | > 100 |  | > 100 | > 100 |  |  |  |  |  |  |  |  |  |  |
| O=C1OC(c2ccccc2Br)=N/C1=C/c1ccccc1 |  | > 100 | > 100 | 41.1 | > 100 | 37.9 | > 100 | > 100 | 39.4 | 77.9 |  |  |  |  |  |  |  |  |  |  |
| COc1cc(N(CCCl)CCCl)ccc1/C=N\NC(=O)c1cccnc1 | 78.5 |  | 87.5 | > 100 | > 100 | > 100 | > 100 | 25.4 | > 100 | 9.47 | 24.1 |  | 1.72 | 31.2 | 23 | 27.3 | 37.1 | 0.403 | 41.2 | 37.5 |
| O=C1CCC2COc3ccc(O)c1c32 (stereo not given) | > 100 | > 100 | > 100 | > 100 | > 100 | > 100 | > 100 | > 100 |  |  |  |  |  |  |  |  |  |  |  |  |
| C#CCNC(=O)CC[C@@H](C)[C@H]1CC[C@H]2[C@@H]3CC[C@@H]4CC(=O)CC[C@]4(C)[C@H]3CC[C@]12C | 31.7 | > 100 | 57.9 | 37.2 | 24.1 | 30.4 | 33.5 | 51.2 | 54.1 | 36.2 | 14 | 28.8 | 14.8 | 20.1 | 4.39 | 14.1 | 10.9 | 22 | 19.7 | 14.6 |
